Here are results for seven compounds from patent publication US7135578B2, “Iminocyclitol inhibitors of hexoaminidase and glycosidase” (The Scripps Research Institute, priority 1999, dated 2006).

In experiment [1] the target is T1, β-N-acetylhexosaminidase A (Homo sapiens, UniProt P06865+P07686). The experiment in a line: β-N-acetylhexosaminidase A inhibition with MUG and MUGS substrates (FIGS. 13A, 13B). It is filed as biochemical.
For experiment [2], the system named is β-glucosidase. Kind of experiment: Inhibition of β-glucosidase, kinetic analysis by capillary zone electrophoresis. To be noted: sweet almond enzyme, CZE. It counts as biochemical. The method, then:
(§1) Initially, the total volume of assay solution was reduced because this is the only way to reduce the amount of enzyme and substrate used in the assay. The 96-well microtiter plate with a round bottom was used for the assay, and each well was sealed with tape. Thus, the assay was examined and carried out in a total volume of as little as 20 μL containing 1.76 mU of a glycosidase such as β-N-acetylhexosaminidase P. The electrophoresis was carried out using 50 mM borate buffer (pH 9.2˜10.2) as the electrolyte and the progress was monitored at 37° C. The injected volume of approximately 38.4 nL of a reaction mixture contained as little as 3.8 pmol of the substrate p-nitrophenyl (PNP) glycoside, thus the amount of PNP detected was less than 10^−12 mol. The peak corresponding to the p-nitrophenol, which appeared at around 6.5 min. in these conditions, was monitored at 405 nm.
(§2) The inhibition studies of compounds 1–9 against α- and β-glucosidases (from Saccharomyces sp. and sweet almond, respectively) were carried out. PNP-glycosides of the parent sugars were used as the substrates throughout the assay. The apparent Km and Vmax values for each substrate were calculated from the double-reciplocal plot of standard 1/v −1/[substrate] curve.^18 The Ki values were determined from a replot of the slopes of Lineweaver-Burk plots vs. the inhibitor concentrations.
Kinetic analyssis of β-glucosidase: To a 1-mL disposable cuvette was added 950 μL of 0.1 M acetate buffer (pH 5.0) solution, 20 μL of inhibitor solution, and 20 μL of 20 mM p-nitrophenyl-β-D-glucopyranoside solution. The solution was well mixed and warmed at 37° C. for 5 min, then 20 μL of the enzyme solution, which was dissolved in ice-cold Tris-HCl buffer (pH 7.8) and diluted with 10 mM phosphate buffer (pH 7.0) containing 0.2% of BSA, was added. The reaction was monitored at 400 nm on a Beckmann DU-70 spectrophotometer for 15 seconds, and the initial rate of hydrolysis was calculated. The same procedure was repeated with three other substrate concentrations. After the initial rates were accumulated, the corresponding Lineweaver-Burk plot at that inhibitor concentration was constructed.
(§3) Condition of capillary zone electrophoresis: Assays were performed on a Waters Quanta 4000E capillary electrophoresis system, which was equipped with a 53 cm×75 μm fused i.d. silica capillary. Detection was carried out by on-column measurement of u.v. absorption at 405 nm at 7.5 cm from the cathode. The capillary used was pretreated or regenerated with 0.1 M KOH (2 min) and elution buffer before each injection. Samples were loaded by means of hydrostatic pressure at 10 cm height for 30 sec (ca 38.4 nl). […] Pherograms were recorded on Millennium 2010 system from Millipore Corp. […]

The subject of experiment [3] is α-glucosidase. Kind of experiment: Inhibition of α-glucosidase, kinetic analysis by capillary zone electrophoresis. It counts as biochemical. To be noted: Saccharomyces sp. enzyme, CZE. The method, then: as §1, §2
Kinetic analysis of α-glucosidase: To a 1-mL disposable cuvette was added 950 μL of 0.1 M phosphate buffer (pH 7.0) solution, 20 μL of inhibitor solution, and 20 μL of 20 mM p-nitrophenyl-α-D-glucopyranoside solution. The solution was well mixed and warmed at 37° C. for 5 min, then 20 μL of the enzyme solution in 10 mM phosphate buffer (pH 7.0) containing 0.2% of BSA was added. The reaction was monitored at 400 nm on Beckmann DU-70 spectrophotometer for 15 seconds, and the initial rate of hydrolysis was calculated. The same procedure was repeated with three other substrate concentrations. After the initial rates were accumulated, the corresponding Lineweaver-Burk plot at that inhibitor concentration was constructed.
as §3

Experiment [4] concerns the target β-glucosidease from Almond. To be noted: β-glucosidase from Almond, reported by Watson et al.; cited from earlier work.
Experiment [5] concerns the target α-glucosidase from baker's yeast. To be noted: reported by Watson et al.; cited from earlier work.
For experiment [6], the target named is β-N-acetylglucosaminidase. The experiment in a line: Inhibition of β-N-acetylglucosaminidase, kinetic analysis by CZE. It is filed as biochemical. To be noted: β-N-acetylglucosaminidase from bovine kidney, substrate PNP-GlcNAc, replot of Lineweaver-Burk slopes. The protocol:
as §1
The inhibition studies of compounds 1–9 against α- and β-glucosidases (from Saccharomyces sp. and sweet almond, respectively) were carried out. PNP-glycosides of the parent sugars were used as the substrates throughout the assay. The apparent Km and Vmax values for each substrate were calculated from the double-reciplocal plot of standard 1/v −1/[substrate] curve.^18 The Ki values were determined from a replot of the slopes of Lineweaver-Burk plots vs. the inhibitor concentrations. […]

Experiment [7] relates to β-N-acetylhexoaminidases. The experiment in a line: Intracellular β-N-acetylhexoaminidases activity (FIG. 12). It is filed as cell-based.
Experiment [8] concerns GAGs. The experiment in a line: Whole cell assay of GAG concentration. It is filed as cell-based.
For experiment [9], the target named is T1, β-N-acetylhexosaminidase A. Kind of experiment: Inhibition of β-N-acetylhexosaminidase A from human placenta. It is filed as biochemical. On the set-up: Kinetic analysis of β-N-acetylhexosaminidase from human placenta; purchased Sigma Chemical Co. (St. Louis, Mo., USA); host or cells: human placenta. To be noted: β-N-acetylhexaoaminidases A from human placenta. The method, then: Condition of capillary zone electrophoresis: Assays were performed on a Waters Quanta 4000E capillary electrophoresis system, which was equipped with a 53 cm×75 μm fused i.d. silica capillary. Detection was carried out by on-column measurement of u.v. absorption at 405 nm at 7.5 cm from the cathode. The capillary used was pretreated or regenerated with 0.1 M KOH (2 min) and elution buffer before each injection. Samples were loaded by means of hydrostatic pressure at 10 cm height for 30 sec (ca 38.4 nl). Electrophoresis was performed at 20 kV using 50 mM sodium borate (pH 9.2 for β-N-Acetylglucosaminidase assays, pH 9.4 for β-glucosidase assays, pH 10.2 for α-glucosidase and β-N-acetylhexosaminidase assay) as electrolyte at a constant temperature of 37° C. Pherograms were recorded on Millennium 2010 system from Millipore Corp.
Kinetic analysis of β-N-acetylhexosaminidase from human placenta: Incubations were performed in a total volume of 20 μL. Unless otherwise stated, reaction mixtures contained 100 mM citrate buffer (pH 4.5), various amount of p-NP-GlcNAc (0.1–1.1 mM) and various amount of inhibitor with 3.35 mU of β-N-acetylhexosaminidase A and 1.76 mU of β-N-acetylhexosaminidase P. After preincubation for 10 min at 37° C., the reaction was started by the addition of β-N-Acetylglucosaminidase and the reaction mixture was incubated for 15 min at 37° C. […]

“Also recorded” adds a separate entry of the source.

T1 sequence (P06865 89-529): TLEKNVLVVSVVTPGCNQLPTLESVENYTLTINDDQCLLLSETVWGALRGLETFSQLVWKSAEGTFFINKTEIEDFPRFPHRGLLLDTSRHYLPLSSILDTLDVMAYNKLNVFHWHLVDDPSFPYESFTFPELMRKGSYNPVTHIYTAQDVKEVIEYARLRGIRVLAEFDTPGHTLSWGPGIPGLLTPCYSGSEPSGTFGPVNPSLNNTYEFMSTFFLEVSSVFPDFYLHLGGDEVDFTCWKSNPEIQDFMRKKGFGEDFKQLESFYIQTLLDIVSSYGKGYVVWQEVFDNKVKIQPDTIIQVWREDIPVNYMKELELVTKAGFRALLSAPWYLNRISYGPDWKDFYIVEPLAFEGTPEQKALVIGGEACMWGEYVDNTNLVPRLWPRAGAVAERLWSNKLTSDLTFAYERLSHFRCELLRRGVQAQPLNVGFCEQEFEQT
T1 sequence (P06865 23-74 limits assumed): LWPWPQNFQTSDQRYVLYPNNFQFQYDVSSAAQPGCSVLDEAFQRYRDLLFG
T1 sequence (P07686 315-556 limits assumed): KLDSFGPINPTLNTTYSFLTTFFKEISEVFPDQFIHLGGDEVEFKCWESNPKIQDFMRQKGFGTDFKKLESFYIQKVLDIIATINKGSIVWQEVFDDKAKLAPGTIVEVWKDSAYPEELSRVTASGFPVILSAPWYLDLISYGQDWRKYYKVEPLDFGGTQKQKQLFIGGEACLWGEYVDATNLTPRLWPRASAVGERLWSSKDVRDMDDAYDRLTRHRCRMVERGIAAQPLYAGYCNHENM
T1 sequence (P07686 122-311 limits assumed): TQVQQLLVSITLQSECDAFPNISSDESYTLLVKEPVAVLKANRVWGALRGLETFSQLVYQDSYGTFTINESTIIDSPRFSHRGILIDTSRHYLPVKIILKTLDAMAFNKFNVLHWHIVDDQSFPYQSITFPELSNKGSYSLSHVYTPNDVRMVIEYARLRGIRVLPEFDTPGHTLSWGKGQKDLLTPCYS
T1 sequence (P07686 50-107 limits assumed): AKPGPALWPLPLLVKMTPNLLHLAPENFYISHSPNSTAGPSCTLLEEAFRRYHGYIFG

Take Sulfated NAG-thiozoline [Compound 108]: the “inhibition activity towards MUGS compared with MUG” value in experiment [1] is “higher inhibition activity towards the 6-sulfate-4-methyl-umbelliferyl-β-D-N-acetylglucosamine (MUGS) than to 4-methyl-umbelliferyl-β-D-N-acetylglucosamine (MUG)”.

For `CC1=N[C@@H]2[C@@H](O)[C@H](O)[C@@H](CO)O[C@@H]2S1` [Compound 107, NAG-thioazoline], in experiment [1], the “inhibition activity towards MUGS compared with MUG” value is listed as “higher inhibition activity to MUG than to MUGS”.

As to `OC[C@H]1N[C@H](CNC[C@H]2N[C@H](CO)[C@@H](O)[C@@H]2O)[C@@H](O)[C@@H]1O` [Compound 9, N,N-di-{[(2R,3R,4R,5R)-(3,4-hydroxy-5-hydroxymethyl)-pyrrolidine]methyl} amine], in experiment [2], the “inhibitory activity against β-glucosidase” value is “inhibitory activity at the same level as 1 and 7”. In experiment [3], the “inhibitory activity against α-glucosidase” value is given as “as effective as 2”.

For `OC[C@H](O)[C@H]1N[C@H](CO)[C@@H](O)[C@H]1O` [Compound 1, (2R,3S,4R,5R,1′R)-5-hydroxymethyl-3,4-dihydroxy-2-(1′,2′-dihydroxy)ethyl-pyrrolidine], in [2], the “inhibitory activity against β-glucosidase” value is recorded as “weak inhibitor”. In addition, the “inhibitory activity against α-glucosidase” value in [3] is given as “weak inhibitor”.

Take `CC(=O)NC[C@@H](O)[C@H]1N[C@H](CO)[C@@H](O)[C@@H]1O` [Compound 6]: in experiment [2], the “inhibitory activity against β-glucosidase” value was “potent inhibitors; also recorded: identical inhibitory activity to 2”. In addition, in experiment [3], the “inhibitory activity against α-glucosidase” value is “identical inhibitory activity to 2”.

The term Ki denotes the dissociation constant of the complex between target and ligand, obtained from inhibition or displacement. As for `OC[C@H](O)[C@@H]1N[C@H](CO)[C@@H](O)[C@@H]1O` [Compound 2, (1′R,2S,3R,4R,5R)-3,4-dihydroxy-2-[1′,2′-dihydroxy-ethyl]-5-hydroxymethyl-pyrrolidine], the “inhibitory activity against β-glucosidase” value in [2] is given as “potent inhibitory activities”. In [3], the “inhibitory activity against α-glucosidase” value is on record as “potent inhibitory activities”. The inhibition constant Ki in experiment [4] was 4000 µM; in experiment [5], 85000 µM.

`CC(=O)NC[C@@H]1[C@@H](O)[C@H](O)[C@@H](CO)N1C` [Compound 4, (2R,3R,4R,5R)-N-Methyl-(2-acetamidomethyl-3,4-dihydroxy-5-hydroxymethyl)-pyrrolidine] gave a Ki in [6] of 0.11 µM. For the same compound, the “intracellular β-N-acetylhexaoaminidases activity” value in experiment [7] was “dramatically decreased”. For the same compound, in experiment [8], the “GAG's intracellular concentration” value is “increase” and the “GAGs' extracellular concentration” value was “decrease”. The compound further came in with an inhibition constant (Ki) in experiment [9] of 0.024 µM.
